In patent US20230133118A1, “COMPOSITIONS AND METHODS FOR TREATING CANCER” (Adagene AG, priority 2020, published 2023):

Key:
T cells = assay: T cell activation in vitro (with anti-CD3 antibody co-treatment); assay type: cell-based
From the text: To elaborate, there could be unquantified/uncertain combination effect with other MOAs, particularly with Immuno-oncology (IO) agents which could be potentially additive and/or synergistic for AEs.

Lewis lung cancer cells = assay: Lewis lung cancer model, ADG106 with anti-PD-1 antibody 2E5; assay type: in vivo, C57BL/6 mice; conditions: 5 mg/kg i.p. twice a week for 2 weeks
From the text: C57BL16 mice (n=8 per group, female, 6-8 weeks old) were transplanted subcutaneously with 5×10^5 Lewis lung cancer cells. […] Tumor growth was monitored twice weekly and reported as mean tumor volume ±SEM over time.

CD137 = assay: Binding to recombinant CD137 and CD137 on activated T cells; set-up: species or system human
From the text: This was expected given that CD137 is known to function as a co-stimulatory T cell receptor. […] This property might prevent the potential of dual independent activation of CD137 potentially accounting for its distinct pharmacology and toxicology profile among this class of therapeutic antibodies.

C1q, human FcγR1 = assay: C1q and FcγR1 binding, NK cell ADCC on activated human CD8+ T cells
rabbit blood = assay: In vitro hemolysis in rabbit blood; conditions: concentrations up to 2.54 mg/mL
From the text: Furthermore, with the cytoplasmic nature of the staining, no significant biological relevancy is anticipated.

NK (CD16+/CD56+) cells = assay: TBNK flow cytometry of patient peripheral blood, NK cell percentage; assay type: in vivo, human; conditions: 32 patients analyzed
4T1 breast cancer cells = assay: 4T1 breast cancer model, ADG106 with docetaxel; assay type: in vivo, BALB/c mice; conditions: 5 mg/kg; ADG106 i.p. twice a week 4 doses, Docetaxel i.v. once a week 3 doses
From the text: Tumor growth was monitored twice weekly and is reported as mean tumor volume ±SEM over time.

[1] = tested on: L5178-R murine T cell lymphoma; assay: L5178-R murine T cell lymphoma syngeneic model; assay type: in vivo, DBA/2 mice; conditions: 20 mg/kg i.p. once every 3 days
From the text: The animals were randomized and treatment started when tumor volumes reach 50-80 mm^3, or on the day of cell inoculation (FIGS. 17A and 17C). Each group consisted of 8 tumor-bearing mice. […] Tumor growth and animal body weight were monitored every 2-3 days.

ADG106: fully human agonistic anti-CD137 monoclonal IgG4 antibody; heavy chain SEQ ID NO: 10, light chain SEQ ID NO: 11
concentration range triggering observable, not maximal T cell activation (T cells; in vitro): 1 to 3 µg/mL | concentration range triggering robust T cell activation (T cells; with anti-CD3 antibody co-treatment): ≥ 10 µg/mL | tumor growth, single agent (Lewis lung cancer cells): significantly inhibit tumor growth | affinity to CD137 on activated cynomolgus monkey and human T cells (CD137): low nanomolar affinity | C1q binding (C1q, human FcγR1): unable to bind C1 q | binding affinity for human FcγR1 protein (C1q, human FcγR1): low binding affinity | NK cell antibody-dependent cell-mediated cytotoxicity on activated human CD8+ T cells (C1q, human FcγR1; human whole cell assays): did not show detectable | hemolysis (rabbit blood): no ADG106-related hemolysis | patients with a decrease of the NK cell level (NK (CD16+/CD56+) cells): 6% | patients with no change of the NK cell level (NK (CD16+/CD56+) cells): 6% | patients with an increase of the NK cell level in peripheral blood (NK (CD16+/CD56+) cells; after first cycle): 88% | anti-tumor activity, mono-therapy (4T1 breast cancer cells): marginal anti-tumor activity | antitumor activity [1]: resistant to ADG106 treatment
